Source: patent publication US9034863B2, “Compositions and methods for inhibiting entry of a hepatic virus” (The Board of Trustees of the University of Illinois, priority 2008, dated 2015)

Legend:
[1] = tested on: HCVcc JFH-1; assay: Acute HCVcc infection of Huh7 cells, HCV RNA by RT-qPCR; format: cell-based, Hepatitis C virus (HCV)
Procedure: For experiments in growing cells, Huh7 cells were seeded 24 hours prior to use at 4×10^3 cells in each well of a 96-well plate (BD Biosciences, San Jose, Calif.). For experiments in non-growing cells, Huh7 cells were seeded in 96-well BIOCOAT culture plates (BD Biosciences) at a density of 8×10^3 cells/well in cDMEM. Upon reaching 90% confluence, media was replaced with 200 μl cDMEM supplemented with 1% (v/v) DMSO (Sigma), and cells were cultured for an additional 20 days, replacing medium every 2 days (Sainz, Jr. & Chisari (2006) J. Virol. 80:10253-7; Choi, et al. (2009) Xenobiotica 39:205-17). Cells were infected with HCVcc JFH-1 at an MOI of 1.0 or 0.1 FFU/cell for 12 hours. Cells were mock-treated or treated with increasing concentrations of ezetimibe 6 hours prior to infection (PRE), during the time of infection for 12 hours (CO), or immediately following infection for 60 hours (POST). For RT-qPCR analysis, total cellular RNA was extracted in 1× Nucleic Acid Purification Lysis Solution (Applied Biosystems, Foster City, Calif.) from triplicate wells at indicated times post infection. For HCV E2-positive foci assay analysis, medium was removed and cells were fixed with 4% paraformaldehyde (w/v) (Sigma) 72 hours post-infection and immunohistochemical staining for HCV E2 was performed as described herein.
Total cellular RNA was purified using an ABI PRISM™ 6100 Nucleic Acid PrepStation (Applied Biosystems), as per the manufacturer's instructions. One μg of purified RNA was used for cDNA synthesis using the TAQMAN reverse transcription reagents (Applied Biosystems), followed by SYBR green RT-qPCR using an Applied Biosystems 7300 real-time thermocycler (Applied Biosystems). […] HCV JFH-1 and human GAPDH RNA transcript levels were determined relative to a standard curve derived from serial dilutions of plasmid containing the JFH-1 HCV cDNA or the human GAPDH coding sequence, respectively. […]
Likewise dose-dependent and time-of-addition-dependent inhibition of HCV infection was observed when HCV RNA levels were quantified by RT-qPCR 24, 48 and 72 hours p.i.

[2] = tested on: Huh7 cells; assay: Cell proliferation assay (cellular ATP, […] Plus); format: cell-based, human; details: increasing doses
Text: The […] Plus Cell Proliferation assay kit (Lonza, Walkersville, Md.), which incorporates bioluminescent detection of cellular ATP as a measure of cell viability and proliferation, was used according to the manufacturer's instructions. Briefly, mock-treated and drug-treated cultures were lysed in Cell Lysis reagent for […]. One hundred μl of culture medium was transferred to white 96-well plates (BD Biosciences) containing ATP detection reagent and luminescence, expressed as relative light units (RLU), was measured (Fluostar OPTIMA). To assess drug-induced cellular toxicity, a bioluminescence-based assay (The TOXILIGHT BioAssay Kit, Lonza) that measures adenylate kinase (AK) released from damaged cells was used as per the manufacturer's instructions. […] One hundred μl of AK detection reagent was then added to each well, and luminescence (RLU) was measured (Fluostar OPTIMA).
To ensure that the inhibition observed was not due to ezetimibe-induced changes in cell proliferation or cytotoxicity, cellular ATP was measured as a read-out of Huh7 cell viability and proliferation and cellular toxicity by adenylate kinase release following treatment with increasing doses of ezetimibe. […] Furthermore, to test the specificity of the observed HCV inhibition, the effect of ezetimibe on entry of another flavivirus, Dengue virus (DNV), was assessed.

[3] = tested on: HCVcc; assay: Steady-state HCVcc RNA levels in chronically infected Huh7 cultures, 24-96 h; format: cell-based, Hepatitis C virus (HCV); details: 30 μM, 24-96 hours post-treatment
Procedure: Huh7 cultures were inoculated with HCVcc at an MOI of 0.01 FFU cell-1. Infected cultures were maintained for an additional 10 days to allow HCV RNA to reach steady-state levels. Cultures were then vehicle-treated, treated with ezetimibe (30 μM) or 2′-C-methylcytidine (12.5 μM). Fresh medium containing the specified treatments was replenished every day throughout the course of the experiment. Intracellular RNA was collected from triplicate wells at 24, 48, 72 and 96 hours post-treatment and HCV RNA was quantified by RT-qPCR and normalized to GAPDH.

Structure (SMILES): O=C1[C@H](CC[C@H](O)c2ccc(F)cc2)[C@@H](c2ccc(O)cc2)N1c1ccc(F)cc1 [ezetimibe, 1-(4-fluorophenyl)-(3R)-[3-(4-fluorophenyl)-(3S)-hydroxypropyl]-(45)-(4-hydroxyphenyl)-2-azetidinone]
- inhibition of HCV infection (HCV RNA levels) ([1]; addition post-infection, 72 hours p.i.): ineffective
- inhibition of HCV infection (HCV RNA levels) ([1]; co-treatment): potently inhibited HCV infection
- protection of cells from subsequent infection, duration ([1]; pre-treatment with 25 μM for 6 hours before infection): at least 48 hours
- cell proliferation (cellular ATP) [2]: did not inhibit cell proliferation
- steady state HCVcc RNA levels [3]: did not inhibit steady state HCVcc RNA levels
